Laboratory results as given in BindingDB's records for doi:10.1016/j.bmcl.2005.06.044 (The University of Tokyo, 2005).

Test: Androgen antagonistic activity as inhibitory concentration against testosterone-induced SC-3 cell proliferation

**Q.** With `CCC(CC)(c1ccc(O)c(C)c1)c1ccc(NCC(=O)C(C)(C)C)c(C)c1` as the compound, how does the IC50 read?
**A.** Its IC50 is 3500 nM.

**Q.** For `CCC(CC)(c1ccc(NCC(=O)C(C)(C)C)c(C)c1)c1ccc(NCC(=O)C(C)(C)C)c(C)c1`, which IC50 is on record?
**A.** Its IC50 is 1000 nM.

**Q.** Which IC50 does the source give for `CCC(CC)(c1ccc(NCC(O)C(C)(C)C)c(C)c1)c1ccc(NCC(O)C(C)(C)C)c(C)c1` (centres undefined) here?
**A.** Its IC50 is 1000 nM.

**Q.** With `CCC(CC)(c1ccc(NCC(=O)C(C)(C)C)c(C)c1)c1ccc(OCC(=O)C(C)(C)C)c(C)c1` as the compound, how does the IC50 read?
**A.** The IC50 was 1200 nM.

**Q.** For `CCC(CC)(c1ccc(NCCC(C)(C)O)c(C)c1)c1ccc(OCC(=O)C(C)(C)C)c(C)c1` [1-(4-{1-Ethyl-1-[4-(3-hydroxy-3-methyl-butylamino)-3-methyl-phenyl]-propyl}-2-methyl-phenoxy)-3,3-dimethyl-butan-2-one], which IC50 is on record?
**A.** Its IC50 is 820 nM.

**Q.** Which IC50 does the source give for `CCC(CC)(c1ccc(NCC(O)CO)c(C)c1)c1ccc(OCC(O)C(C)(C)C)c(C)c1` (centres undefined) [3-(4-{1-Ethyl-1-[4-(2-hydroxy-3,3-dimethyl-butoxy)-3-methyl-phenyl]-propyl}-2-methyl-phenylamino)-propane-1,2-diol] here?
**A.** Its IC50 is 9 nM.

**Q.** Which IC50 does the source give for `CCC(CC)(c1ccc(NCCC(C)(C)O)c(C)c1)c1ccc(NCCC(C)(C)O)c(C)c1` [4-(4-{1-Ethyl-1-[4-(3-hydroxy-3-methyl-butylamino)-3-methyl-phenyl]-propyl}-2-methyl-phenylamino)-2-methyl-butan-2-ol] here?
**A.** The IC50 was 6800 nM.

**Q.** With `CCC(CC)(c1ccc(OC[C@H](O)CO)c(C)c1)c1ccc(OC[C@H](O)C(C)(C)C)c(C)c1` [(R)-3-(4-(3-(4-((R)-2-hydroxy-3,3-dimethylbutoxy)-3-methylphenyl)pentan-3-yl)-2-methylphenoxy)propane-1,2-diol] as the compound, how does the IC50 read?
**A.** Its IC50 is 19 nM.

**Q.** Which IC50 does the source give for `CCC(CC)(c1ccc(OCC(=O)C(C)(C)C)c(C)c1)c1ccc(OCC(=O)C(C)(C)C)c(C)c1` [LG190155] here?
**A.** The IC50 was 1900 nM.
